Experiments:
Spodoptera frugiperda = Spodoptera frugiperda spray test; format: in vivo; conditions: after 7 days
Tetranychus urticae = Tetranychus urticae spray test, OP-resistant (bean leaf discs); format: in vivo; conditions: 100 g/ha; after 6 days
Experimental: After 6 days, the efficacy in % is determined.

Phaedon cochleariae = Phaedon cochleariae spray test; conditions: 100 g/ha; after 7 days
Ctenocephalides felis = Ctenocephalides felis oral test; format: in vivo; conditions: 100 ppm in citrated cattle blood; after 2 days
Experimental: • Solvent: Dimethyl Sulfoxide
To produce a suitable active ingredient formulation, 10 mg of active ingredient are mixed with 0.5 ml of dimethyl sulfoxide. Dilution with citrated cattle blood gives the desired concentration.
About 20 unfed adult cat fleas (Ctenocephalides fells) are placed into a chamber which is closed at the top and bottom with gauze. A metal cylinder whose bottom end is closed with parafilm is placed onto the chamber. The cylinder contains the blood/active ingredient formulation, which can be imbibed by the fleas through the parafilm membrane.

Boophilus microplus = Boophilus microplus injection test; format: in vivo; conditions: 20 μg/animal; assessed after 7 days
Experimental: • Solvent: dimethyl sulfoxide
1 μl of the active ingredient solution is injected into the abdomen of 5 engorged adult female cattle ticks (Boophilus microplus). The animals are transferred into dishes and kept in a climate-controlled room.

| Compound | efficacy (Spodoptera frugiperda; 100 g/ha) [%] | efficacy (Tetranychus urticae) [%] | efficacy (Phaedon cochleariae) [%] | efficacy (rate of extermination) (Ctenocephalides felis) [%] | efficacy (laying of fertile eggs) (Boophilus microplus) [%] | efficacy (Spodoptera frugiperda; 20 g/ha) [%] |
| --- | --- | --- | --- | --- | --- | --- |
| CCC(=O)NCc1cc(-c2cnn(-c3c(Cl)cc(C(F)(C(F)(F)F)C(F)(F)F)cc3Cl)c2)ccc1C [Ia-81] | 100 | 100 |  |  |  |  |
| CC(=O)N(C)Cc1cc(-c2cnn(-c3c(Cl)cc(C(F)(C(F)(F)F)C(F)(F)F)cc3Cl)c2)ccc1Br [Ia-165] | 100 | 90 | 100 |  |  |  |
| CCC(=O)NCc1cccc(-c2cnn(-c3c(Cl)cc(C(F)(C(F)(F)F)C(F)(F)F)cc3C(F)F)c2)c1 [Ia-39] | 100 | 100 | 100 |  |  |  |
| CC(=S)N(C)Cc1cc(-c2cnn(-c3c(Cl)cc(C(F)(C(F)(F)F)C(F)(F)F)cc3Cl)c2)ccc1Cl [Ia-163] | 83 | 100 | 100 |  |  |  |
| O=C(NCc1cc(-c2cn(-c3c(Cl)cc(C(F)(C(F)(F)F)C(F)(F)F)cc3Cl)nn2)ccc1Cl)C1CC1 [I-T7-03] | 100 |  | 100 |  |  |  |
| CC(=O)NCc1cc(-c2cnn(-c3c(Cl)cc(C(F)(C(F)(F)F)C(F)(F)F)cc3OC(F)(F)F)c2)ccc1F [Ia-06] | 100 |  | 100 |  |  |  |
| CCC(=O)NCc1cc(-c2cn(-c3c(Cl)cc(C(F)(C(F)(F)F)C(F)(F)F)cc3Cl)nn2)ccc1Cl [I-T7-02] | 100 |  | 100 |  |  |  |
| CN(Cc1cc(-c2cnn(-c3c(Cl)cc(C(F)(C(F)(F)F)C(F)(F)F)cc3Cl)c2)ccc1Cl)C(=O)C1CC1 [Ia-24] | 100 |  | 100 |  |  |  |
| CS(=O)(=O)c1cc(C(F)(C(F)(F)F)C(F)(F)F)cc(Cl)c1-n1cc(-c2ccc(F)c(CNC(=O)C3CC3)c2)cn1 [Ia-44] |  | 100 | 100 |  |  |  |
| CC(=O)NCc1cccc(-c2cnn(-c3c(Cl)cc(C(F)(C(F)(F)F)C(F)(F)F)cc3Cl)c2)c1 [Ia-09] | 100 | 90 | 100 |  |  |  |
| CC(=O)NCc1cc(-c2cnn(-c3c(Cl)cc(C4(C(F)(F)F)CC4)cc3Cl)c2)ccc1F [Ia-124] |  |  | 100 |  |  |  |
| CCC(=O)NCc1cc(-c2cnn(-c3c(Cl)cc(C(F)(C(F)(F)F)C(F)(F)F)cc3Cl)c2)ccc1Br [Ia-166] | 100 | 100 | 100 |  |  |  |
| CC(=O)N(C)Cc1cc(-c2cnn(-c3c(Cl)cc(C(F)(C(F)(F)F)C(F)(F)F)cc3Cl)c2)c(F)cc1Cl [Ia-110] | 100 |  | 100 |  |  |  |
| CCC(=O)NCc1cc(-c2cn(-c3c(Cl)cc(C(F)(C(F)(F)F)C(F)(F)F)cc3Cl)cn2)ccc1F [I-T2-03] |  |  | 100 |  |  |  |
| CCC(=O)NCc1cccc(-c2cnn(-c3c(Cl)cc(C(F)(C(F)(F)F)C(F)(F)F)cc3C#N)c2)c1 [Ia-97] |  |  | 100 |  |  |  |
| CCC(=O)N(C)Cc1cc(-c2cnn(-c3c(Cl)cc(C(F)(C(F)(F)F)C(F)(F)F)cc3Cl)c2)ccc1Br [Ia-167] | 100 | 100 | 100 |  |  |  |
| CCC(=O)NCc1cc(-c2cnn(-c3c(Cl)cc(C4(C(F)(F)F)CC4)cc3Cl)c2)ccc1F [Ia-123] | 83 |  | 100 |  |  |  |
| CC(C)(C)C(=O)NCc1cc(-c2cnn(-c3c(Cl)cc(C(F)(C(F)(F)F)C(F)(F)F)cc3C(F)F)c2)ccc1F [Ia-62] |  |  | 100 |  |  |  |
| O=C(NCc1cc(-c2cnn(-c3c(Cl)cc(C(F)(C(F)(F)F)C(F)(F)F)cc3Cl)c2)ccc1Cl)C(F)F [Ia-119] | 100 | 100 | 100 |  |  |  |
| CC(=O)NCc1cc(-c2cn(-c3c(Cl)cc(C(F)(C(F)(F)F)C(F)(F)F)cc3Cl)cn2)ccc1F [I-T2-01] |  |  | 100 |  |  |  |
| CCCN(Cc1cc(-c2cnn(-c3c(Cl)cc(C(F)(C(F)(F)F)C(F)(F)F)cc3Cl)c2)ccc1Cl)C(C)=O [Ia-112] | 100 | 90 | 100 |  |  |  |
| CCC(=O)NCc1cc(-c2cnn(-c3c(Cl)cc(C(F)(C(F)(F)F)C(F)(F)F)cc3C#N)c2)ccc1Cl [Ia-114] | 100 |  | 100 |  |  |  |
| CCC(=O)NCc1cc(-c2cnn(-c3c(Cl)cc(C(F)(C(F)(F)F)C(F)(F)F)cc3OC(F)F)c2)cnc1Cl [Ia-160] | 100 | 100 | 100 |  |  |  |
| CC(=O)N(C)Cc1cc(-c2cnn(-c3c(F)cc(C(F)(C(F)(F)F)C(F)(F)F)cc3Br)c2)ccc1Cl [Ia-100] | 100 | 100 | 100 |  |  |  |
| CC(=O)NCc1cccc(-c2cnn(-c3c(Cl)cc(C(F)(C(F)(F)F)C(F)(F)F)cc3Cl)c2)c1F [Ia-153] |  |  | 100 |  |  |  |

| Compound | efficacy (Spodoptera frugiperda; 100 g/ha) [%] | efficacy (Tetranychus urticae) [%] | efficacy (Phaedon cochleariae) [%] | efficacy (rate of extermination) (Ctenocephalides felis) [%] | efficacy (laying of fertile eggs) (Boophilus microplus) [%] | efficacy (Spodoptera frugiperda; 20 g/ha) [%] |
| --- | --- | --- | --- | --- | --- | --- |
| CC(=O)NC(C)c1cc(-c2cnn(-c3c(Cl)cc(C(F)(C(F)(F)F)C(F)(F)F)cc3Cl)c2)ccc1F (stereo not shown) [Ia-49] | 100 |  | 100 |  |  |  |
| CCC(=O)NCc1cc(-c2cnn(-c3c(Cl)cc(C(F)(C(F)(F)F)C(F)(F)F)cc3Cl)c2)c(F)cc1Cl [Ia-111] | 100 | 100 | 100 |  |  |  |
| N-[1-(2-chloro-5-{1-[2,6-dichloro-4-(1,1,1,2,3,3,3-heptafluoropropan-2-yl)phenyl]-1H-pyrazol-4-yl}phenyl)ethyl]propanamide [Ia-47] | 83 |  | 100 |  |  |  |
| CC(=O)N(C)Cc1cc(-c2cnn(-c3c(Cl)cc(C(F)(C(F)(F)F)C(F)(F)F)cc3Cl)c2)ccc1C(F)(F)F [Ia-77] | 100 |  | 100 | 100 | 100 |  |
| O=C(CC(F)(F)F)NCc1cccc(-c2cnn(-c3c(Cl)cc(C(F)(C(F)(F)F)C(F)(F)F)cc3Cl)c2)c1 [Ia-21] | 100 |  | 100 |  |  |  |
| CCN(Cc1cc(-c2cnn(-c3c(Cl)cc(C(F)(C(F)(F)F)C(F)(F)F)cc3Cl)c2)ccc1Cl)C(C)=O [Ia-109] | 100 | 100 | 100 |  |  |  |
| CCC(=O)NCc1cc(-c2cnn(-c3c(Cl)cc(C(F)(C(F)(F)F)C(F)(F)F)cc3OC(F)(F)F)c2)ccc1Cl [Ia-86] | 100 |  | 100 |  |  |  |
| CC(=O)N(C)Cc1cc(-c2cnn(-c3c(Cl)cc(C(F)(C(F)(F)F)C(F)(F)F)cc3OC(F)(F)F)c2)ccc1Cl [Ia-85] | 100 | 100 | 100 |  |  |  |
| CCC(=O)N(C)Cc1cc(-c2cnn(-c3c(Cl)cc(C(F)(C(F)(F)F)C(F)(F)F)cc3OC(F)(F)F)c2)ccc1F [Ia-27] | 100 | 100 | 100 |  |  |  |
| O=C(NCc1cc(-c2cnn(-c3c(Cl)cc(C(F)(C(F)(F)F)C(F)(F)F)cc3Cl)c2)ccc1Cl)C(F)(F)F [Ia-120] | 100 | 100 | 100 |  |  |  |
| C[S+]([O-])c1cc(C(F)(C(F)(F)F)C(F)(F)F)cc(Cl)c1-n1cc(-c2ccc(F)c(CNC(=O)C3CC3)c2)cn1 (stereo not shown) [Ia-43] |  | 90 | 100 |  |  | 83 |
| CCC(=O)N(C)Cc1cc(-c2cnn(-c3c(Cl)cc(C(F)(C(F)(F)F)C(F)(F)F)cc3OC(F)(F)F)c2)ccc1Cl [Ia-87] | 100 | 100 | 100 |  |  |  |
| CCC(=O)NCc1cc(-c2cnn(-c3c(Cl)cc(C(F)(C(F)(F)F)C(F)(F)F)cc3Br)c2)ccc1Cl [Ia-89] | 100 | 90 | 100 |  |  |  |
| CCC(=O)NCc1cc(-c2cnn(-c3c(F)cc(C(F)(C(F)(F)F)C(F)(F)F)cc3Br)c2)ccc1Cl [Ia-94] | 100 |  | 100 |  |  |  |
| CCC(=O)NCc1cc(-c2cnn(-c3c(Cl)cc(C(F)(C(F)(F)F)C(F)(F)F)cc3C#N)c2)ccc1C [Ia-101] | 100 |  | 100 |  |  |  |
| CCC(=O)N(C)Cc1cc(-c2cnn(-c3c(Cl)cc(C(F)(C(F)(F)F)C(F)(F)F)cc3Cl)c2)ccc1C(F)(F)F [Ia-78] |  |  | 100 |  |  |  |
| CCC(=O)NCc1cc(-c2cnn(-c3c(Cl)cc(C(F)(C(F)(F)F)C(F)(F)F)cc3C#N)c2)ccc1F [Ia-103] | 100 |  | 100 |  |  |  |
| O=S(=O)(NCc1cc(-c2cnn(-c3c(Cl)cc(C(F)(C(F)(F)F)C(F)(F)F)cc3Cl)c2)ccc1Cl)c1ccccc1 [Ic-05] | 100 |  | 100 |  |  |  |
| Cc1cc(C(F)(C(F)(F)F)C(F)(F)F)cc(Cl)c1-n1cc(-c2cccc(CNC(=O)C3CC3)c2)cn1 [Ia-70] |  |  | 100 |  |  |  |
| CC(=O)NCc1cc(-c2cnn(-c3c(F)cc(C(F)(C(F)(F)F)C(F)(F)F)cc3Br)c2)ccc1Cl [Ia-92] | 100 | 100 | 100 |  |  |  |
| CC(=O)NCc1cc(-c2cnn(-c3c(Cl)cc(C(F)(C(F)(F)F)C(F)(F)F)cc3Cl)c2)ccc1Br [Ia-164] | 100 | 100 | 100 |  |  |  |
| CC(=O)N(C)Cc1cc(-c2cnn(-c3c(Cl)cc(C(F)(C(F)(F)F)C(F)(F)F)cc3Br)c2)ccc1Cl [Ia-99] | 100 | 100 | 100 |  |  |  |
| CCC(=O)NC(C)c1cc(-c2cnn(-c3c(Cl)cc(C(F)(C(F)(F)F)C(F)(F)F)cc3Cl)c2)ccc1F (stereo not shown) [Ia-50] | 100 |  |  |  |  |  |
| CC(=O)NCc1cc(-c2cnn(-c3c(Cl)cc(S(=O)(=O)C(F)(F)F)cc3Cl)c2)ccc1Cl [Ia-88] | 83 | 100 | 100 | 100 | 100 |  |

Source: patent US10357036B2, “Compounds for controlling arthropods” (priority 2015, dated 2019)
